Read-outs that look alike come from different tables or passages of the source. Values belong to the molecule of their own block, whether it stands above or below them.
Key:
[1] = Lipophilicity, log D by shake-flask method (1-octanol/PBS pH 7.4); assay type: physicochemical; settings: Table 17, mean ± SD
Method: The radiotracer (1 μM) was added to a 50:50 pre-saturated mixture of 1-octanol and phosphate buffered saline (PBSpH 7.4). The solution was vortexed for 30 min and then centrifuged at 3,000 rpm to achieve a phase separation. Aliquots from each phase were collected and measured in a gamma-counter. The distribution coefficient was calculated as the average of the logarithmic values of the ratio between the radioactivity in the organic and the PBS phase.
Table 17. Lipophilicity expressed as the log distribution coefficient D (log D(Octanol/PBS pH7.4)) of ^61Cu-radiotracers versus ^68Ga-radiotracers (reference radiotracers).
In a pre-lubricated Eppendorf tube, a pre-saturated mixture of 500 μL of 1-octanol and 500 μL of PBS pH 7.4 (phosphate-buffered saline) were added. An aliquot of […] in 10 μL of the radioligand was added to this mixture, shaken for 30 min, and then centrifuged at 3000 rcf for 10 min to achieve phase separation. Aliquots of 100 μL were removed from the 1-octanol and from the PBS phases, and the activity was measured in a […]. The partition coefficient was calculated as the average log ratio value of the radioactivity in the organic fraction and PBS fraction.

LNCaP xenografts = experiment: Quantitative biodistribution in LNCaP xenografted mice; assay type: in vivo; settings: for Biodistribution Adrenal / Biodistribution Blood / Biodistribution Bone / Biodistribution Heart / Biodistribution Intestine / Biodistribution Kidney / Biodistribution LNCaP-tumor / Biodistribution Liver / Biodistribution Lung / Biodistribution Muscle / Biodistribution Pancreas / Biodistribution Salivary gland / Biodistribution Spleen / Biodistribution Stomach / Ratio Tumor/Blood / Ratio Tumor/Kidney / Ratio Tumor/Liver / Ratio Tumor/Muscles: LNCap xenograft mice
Method: (§1) The mice were randomly distributed in groups and euthanized at 1 and at 4 hours post-injection. The organs of interest were collected, rinsed, blotted, weighed and counted in a gamma counter. The results are expressed as percentage of injected activity per gram (% IA/g), representing the mean±standard deviation of n=4-8 mice per group and they were obtained by extrapolation from counts of an aliquot taken from the injected solution as standard.
The biodistribution of the [^61Cu]Cu-NODAGA radiotracers was compared with the reference compounds used in patients under identical experimental conditions. The mice were randomly distributed in groups, injected with the radiotracer under investigation and euthanized at 1 and at 4 hours post-injection of the radiotracers under investigation. The organs of interest were collected, rinsed, blotted, weighed and counted in a gamma counter. The results are expressed as percentage of injected activity per gram (% IA/g), representing the mean±standard deviation of all mice per group and they were obtained by extrapolation from counts of an aliquot taken from the injected solution as standard.

in vivo = settings: athymic nude Foxn1+Foxn1+, mouse, iv, 200 umol, total radioactivity
Method: The tumors were allowed to grow for 1-3 weeks before commencement of the experiments.
as §1
The mice were randomly distributed in groups, injected with the radiotracer under investigation and euthanized at 1 and at 4 hours post-injection of the radiotracers under investigation. The organs of interest were collected, rinsed, blotted, weighed and counted in a gamma counter. The results are expressed as percentage of injected activity per gram (% IA/g), representing the mean±standard deviation of all mice per group and they were obtained by extrapolation from counts of an aliquot taken from the injected solution as standard.
The mice were randomly distributed in groups and euthanized at 4 hours post-injection. The organs of interest were collected, rinsed, blotted, weighed, and their respective radioactivity was counted in a gamma counter.

[2] = Pharmacokinetics (biodistribution 1-24 h) in non-tumor bearing mice; assay type: in vivo; settings: for tissue uptake at 1 h / tissue uptake at 4 h / tissue uptake at 12 h / tissue uptake at 24 h: female, BALB/c, mouse, 200 umol, total radioactivity; for tissue uptake at 1 h: 1 hour after injection; for tissue uptake at 1 h / tissue uptake at 4 h: ^61Cu; for tissue uptake at 4 h: 4 hours after injection; for tissue uptake at 12 h: 12 hours after injection; for tissue uptake at 12 h / tissue uptake at 24 h: ^64Cu; for tissue uptake at 24 h: 24 hours after injection
Method: The biodistribution at the investigate time points was performed as described in the Example 9. The data were combined with the results obtained from the groups of xenografts at 1 hour and 4 hours p.i., as the biodistribution in nude mice was the same as in the healthy mice. The results were expressed as described in the Example 10.

[3] = adrenal, read-out: Biodistribution Adrenal
[4] = blood, read-out: Biodistribution Blood
[5] = femur, read-out: Biodistribution Femur
[6] = heart, read-out: Biodistribution Heart
[7] = intestine, read-out: Biodistribution Intestine
[8] = kidneys, read-out: Biodistribution Kidneys
[9] = liver, read-out: Biodistribution Liver
[10] = lung, read-out: Biodistribution Lung
[11] = muscle, read-out: Biodistribution Muscles
[12] = pancreas, read-out: Biodistribution Pancreas
[13] = pituitary, read-out: Biodistribution Pituitary
[14] = spleen, read-out: Biodistribution Spleen
[15] = stomach, read-out: Biodistribution Stomach

- logD ([1]; pH 7.4, shake-flask, read-out: log D(O/PBS pH 7.4)): -2.48 ± 0.3
SMILES: C[C@@H](O)[C@@H]1NC(=O)[C@H](CCCCN)NC(=O)[C@@H](Cc2c[nH]c3ccccc23)NC(=O)[C@H](Cc2ccc(O)cc2)NC(=O)[C@@H](NC(=O)[C@@H](Cc2ccccc2)NC(=O)CCC(C(=O)O)N2CCN(CC(=O)O)CCN(CC(=O)O)CC2)CSSC[C@@H](C(=O)N[C@H](CO)[C@@H](C)O)NC1=O (single isomer, unassigned) [[^68Ga]Ga-NODAGA-TOC, metal not drawn]

SMILES: O=C(O)CC[C@H](NC(=O)N[C@@H](CCCCNC(=O)[C@H](Cc1ccc2ccccc2c1)NC(=O)c1ccc(CNC(=O)[C@H](CCC(=O)O)NC(=O)[C@H](CCC(=O)O)NC(=O)c2ccc([18F])nc2)cc1)C(=O)O)C(=O)O [[^18F]PSMA-1007]
- log D(O/PBS pH 7.4) ([1]; shake-flask): −3.02 ± 0.11
- tumor uptake (LNCaP xenografts; 4h p.i., LNCaP xenograft mice, comparison with reference radiotracer, p=0.0145): 6.28±2.19 % IA/g
- Biodistribution Adrenal (LNCaP xenografts; 1 h after injection): 7.18 ± 2.20 % IA/g
- Biodistribution Blood (LNCaP xenografts; 1 h after injection): 0.41 ± 0.11 % IA/g
- Biodistribution Bone (LNCaP xenografts; 1 h after injection): 0.94 ± 0.13 % IA/g
- Biodistribution Heart (LNCaP xenografts; 1 h after injection): 1.25 ± 0.29 % IA/g
- Biodistribution Intestine (LNCaP xenografts; 1 h after injection): 1.04 ± 0.33 % IA/g
- Biodistribution Kidney (LNCaP xenografts; 1 h after injection): 100 ± 17 % IA/g
- Biodistribution LNCaP-tumor (LNCaP xenografts; 1 h after injection): 9.70 ± 2.57 % IA/g
- Biodistribution Liver (LNCaP xenografts; 1 h after injection): 0.93 ± 0.26 % IA/g
- Biodistribution Lung (LNCaP xenografts; 1 h after injection): 2.08 ± 0.24 % IA/g
- Biodistribution Muscle (LNCaP xenografts; 1 h after injection): 0.53 ± 0.09 % IA/g
- Biodistribution Pancreas (LNCaP xenografts; 1 h after injection): 1.32 ± 0.58 % IA/g
- Biodistribution Salivary gland (LNCaP xenografts; 1 h after injection): 2.54 ± 0.72 % IA/g
- Biodistribution Spleen (LNCaP xenografts; 1 h after injection): 11.0 ± 1.1 % IA/g
- Biodistribution Stomach (LNCaP xenografts; 1 h after injection): 0.75 ± 0.15 % IA/g
- Ratio Tumor/Blood (LNCaP xenografts; 1 h after injection): 25.8 ± 11.5
- Ratio Tumor/Kidney (LNCaP xenografts; 1 h after injection): 0.10 ± 0.03
- Ratio Tumor/Liver (LNCaP xenografts; 1 h after injection): 11.3 ± 4.5
- Ratio Tumor/Muscles (LNCaP xenografts; 1 h after injection): 19.2 ± 6.5
- Biodistribution Adrenal (LNCaP xenografts; 4 h after injection): 8.03 ± 2.66 % IA/g
- Biodistribution Blood (LNCaP xenografts; 4 h after injection): 0.17 ± 0.04 % IA/g
- Biodistribution Bone (LNCaP xenografts; 4 h after injection): 0.62 ± 0.11 % IA/g
- Biodistribution Heart (LNCaP xenografts; 4 h after injection): 0.53 ± 0.23 % IA/g
- Biodistribution Intestine (LNCaP xenografts; 4 h after injection): 0.43 ± 0.22 % IA/g
- Biodistribution Kidney (LNCaP xenografts; 4 h after injection): 132 ± 9 % IA/g
- Biodistribution LNCaP-tumor (LNCaP xenografts; 4 h after injection): 6.28 ± 2.19 % IA/g
- Biodistribution Liver (LNCaP xenografts; 4 h after injection): 0.32 ± 0.16 % IA/g
- Biodistribution Lung (LNCaP xenografts; 4 h after injection): 1.61 ± 0.58 % IA/g
- Biodistribution Muscle (LNCaP xenografts; 4 h after injection): 0.27 ± 0.11 % IA/g
- Biodistribution Pancreas (LNCaP xenografts; 4 h after injection): 0.80 ± 0.32 % IA/g
- Biodistribution Salivary gland (LNCaP xenografts; 4 h after injection): 1.62 ± 0.43 % IA/g
- Biodistribution Spleen (LNCaP xenografts; 4 h after injection): 8.33 ± 2.11 % IA/g
- Biodistribution Stomach (LNCaP xenografts; 4 h after injection): 0.47 ± 0.16 % IA/g
- Ratio Tumor/Blood (LNCaP xenografts; 4 h after injection): 42.7 ± 16.4
- Ratio Tumor/Kidney (LNCaP xenografts; 4 h after injection): 0.04 ± 0.01
- Ratio Tumor/Liver (LNCaP xenografts; 4 h after injection): 18.4 ± 8.5
- Ratio Tumor/Muscles (LNCaP xenografts; 4 h after injection): 20.1 ± 2.5

- tissue uptake at 1 h (in vivo; Biodistribution HEK-SST2): 8.88 ± 3.19 %ID/g
- tissue uptake at 1 h (in vivo; Biodistribution Kidney): 12.5 ± 2.25 %ID/g
SMILES: C[C@@H](O)[C@@H]1NC(=O)[C@H](CCCCN)NC(=O)[C@@H](Cc2c[nH]c3ccccc23)NC(=O)[C@H](Cc2ccc(O)cc2)NC(=O)[C@@H](NC(=O)[C@@H](Cc2ccccc2)NC(=O)CCC(C(=O)O)N2CCN(CC(=O)O)CCN(CC(=O)O)CC2)CSSC[C@@H](C(=O)N[C@H](CO)[C@@H](C)O)NC1=O (single isomer, unassigned) [[^61Cu]Cu-NODAGA-TOC, metal not drawn]

- tissue uptake at 1 h [2, 3]: 1.06 ± 0.24 %ID/g
- tissue uptake at 4 h [2, 3]: 0.63 ± 0.22 %ID/g
- tissue uptake at 1 h [2, 4]: 0.24 ± 0.08 %ID/g
- tissue uptake at 4 h [2, 4]: 0.04 ± 0.02 %ID/g
- tissue uptake at 12 h [2, 4]: 0.04 ± 0.01 %ID/g
- tissue uptake at 24 h [2, 4]: 0.03 %ID/g
- tissue uptake at 1 h [2, 5]: 0.45 ± 0.14 %ID/g
- tissue uptake at 4 h [2, 5]: 0.28 ± 0.11 %ID/g
- tissue uptake at 24 h [2, 5]: 0.06 ± 0.01 %ID/g
- tissue uptake at 1 h [2, 6]: 0.17 ± 0.03 %ID/g
- tissue uptake at 4 h [2, 6]: 0.07 ± 0.02 %ID/g
- tissue uptake at 12 h [2, 6]: 0.09 ± 0.02 %ID/g
- tissue uptake at 24 h [2, 6]: 0.07 ± 0.02 %ID/g
- tissue uptake at 1 h [2, 7]: 0.96 ± 0.12 %ID/g
- tissue uptake at 4 h [2, 7]: 0.69 ± 0.19 %ID/g
- tissue uptake at 1 h [2, 8]: 17.2 ± 4.46 %ID/g
- tissue uptake at 4 h [2, 8]: 7.64 ± 3.85 %ID/g
- tissue uptake at 1 h [2, 9]: 0.35 ± 0.08 %ID/g
- tissue uptake at 4 h [2, 9]: 0.28 ± 0.08 %ID/g
- tissue uptake at 1 h [2, 10]: 1.07 ± 0.17 %ID/g
- tissue uptake at 4 h [2, 10]: 0.5 ± 0.24 %ID/g
- tissue uptake at 1 h [2, 11]: 0.16 ± 0.05 %ID/g
- tissue uptake at 4 h [2, 11]: 0.07 ± 0.03 %ID/g
- tissue uptake at 12 h [2, 11]: 0.02 ± 0.01 %ID/g
- tissue uptake at 24 h [2, 11]: 0.01 %ID/g
- tissue uptake at 1 h [2, 12]: 2.71 ± 0.4 %ID/g
- tissue uptake at 4 h [2, 12]: 0.6 ± 0.19 %ID/g
- tissue uptake at 24 h [2, 12]: 0.07 ± 0.01 %ID/g
- tissue uptake at 1 h [2, 13]: 3.39 ± 1.11 %ID/g
- tissue uptake at 4 h [2, 13]: 2.71 ± 1.84 %ID/g
- tissue uptake at 1 h [2, 14]: 0.23 ± 0.04 %ID/g
- tissue uptake at 4 h [2, 14]: 0.1 ± 0.03 %ID/g
- tissue uptake at 12 h [2, 14]: 0.1 ± 0.02 %ID/g
- tissue uptake at 24 h [2, 14]: 0.07 ± 0.02 %ID/g
- tissue uptake at 1 h [2, 15]: 2.62 ± 0.48 %ID/g
- tissue uptake at 4 h [2, 15]: 1.35 ± 0.26 %ID/g
- blood clearance ([2]; healthy mice, 1 to 24 hours after injection): very fast blood clearance
SMILES: C[C@@H](O)[C@@H]1NC(=O)[C@H](CCCCN)NC(=O)[C@@H](Cc2c[nH]c3ccccc23)NC(=O)[C@H](Cc2ccc(O)cc2)NC(=O)[C@@H](NC(=O)[C@@H](Cc2ccccc2)NC(=O)CCC(C(=O)O)N2CCN(CC(=O)O)CCN(CC(=O)O)CC2)CSSC[C@@H](C(=O)N[C@H](CO)[C@@H](C)O)NC1=O (single isomer, unassigned) [[^61/^64Cu]Cu-NODAGA-TOC, metal not drawn]

Source: patent US20240173440A1, “HIGH PURITY COPPER RADIOPHARMACEUTICAL COMPOSITIONS AND DIAGNOSTIC AND THERAPEUTIC USES THEREOF” (Nuclidium AG, priority 2022, published 2024)
